Laboratory results as given in patent US9469665B2, “Compound having lysophosphatidylserine receptor function modulation activity” (THE UNIVERSITY OF TOKYO, priority 2013, dated 2016).
Structures can show the parent of a compound that is named as a salt.

Assays:
mouse P2Y10 = target: T1, mouse P2Y10 (Mus musculus, UniProt Q8BFU7); experiment: TGFα shedding assay, agonistic activity on P2Y10; assay type: cell-based; set-up: key: an activity that is 100 folds that of control compound 1 as +++++; an activity that is 10 folds that of control compound 1 as ++++; the activity of the control compound 1 (LPS18:1) as +++; an activity that is 1/10 as ++; an activity that is 1/100 as +; an activity below that as −; conditions: HEK293 cells transfected with mouse P2Y10 and AP labeled TGFα; activity relative to control compound 1 (LPS18:1) = +++
T1 construct: expressed in transfected cells; host or cells: HEK293
Protocol: (§1) [Test Example 1]Assay of Agonistic Activity by TGFα Shedding Assay
(§2) HEK293 cells were suspended in the Dulbecco's modified Eagle's medium (DMEM) containing 10% fetal bovine serum (FCS) to exist in an amount of 2.0×10^5 cells/mL, and they were seeded in 60 mm dishes at 4 mL per dish. Transfection of different expression vectors was performed using LipofectAMINE 2000 (Invitrogen) after 24 hours of culture under the presence of 5% CO2. For each 60 mm dish, 1 μg of AP labeled TGFα plasmid vectors were used, and 1 μg of pCAGGS plasmid vectors of mouse GPR34, P2Y10 or GPR174 were used. The plasmid vectors were prepared by methods disclosed in Patent Documents 2 and 5. Note that the AP labeled TGFα is a protein comprising a membrane-bound pro-TGFα whose N terminal end is fused with human placental alkaline phosphatase, and the plasmid vector of the AP labeled TGFα may be produced based on the teaching of Tokumaru et al., J Cell Biol 151, 209-220 (2000). After 24 hours of transfection, the cells were peeled off using trypsin/EDTA, and they were re-suspended in a culture medium to form an amount of 2.0×10^4 cells/well to be seeded to a 96-well plate. Hanks' Balanced Salt Solution (HBSS, containing 5 mM HEPES) was used for the re-suspended solution when stimulating with the compound. After it was left still for 30 min., subject compounds of various concentrations were added and the solutions were left still for another 1 hour under the presence of 5% CO2. The 96-well plate was subjected to centrifugation (190×g, 3 min.), then 80 μl of supernatant was transferred to a different 96-well plate. A reaction buffer (40 mM Tris-HCl (pH 9.5)) containing 10 mM p-nitrophenyl phosphate (p-NPP) was added in an amount of 80 μL to the supernatant and cells. The OD405 was measured with a micro plate reader (background), then after heating at 37° C. for an hour, OD405 was re-measured. The AP activity for each well was obtained by subtracting the background from the second absorbance and plugging the difference into the following formula.
(§3) In addition, the value obtained by subtracting the AP activity (%) of the non-stimulated group was used in the vertical axis to create a graph. The graphs of the test results for Example 3 (lysoPS sn-1-deoxy sn3 C3-ph-o-OBn-m-Oph) and Example 31 (lysoPS sn-1-OMe sn3 C3-ph-o-OBn-m-Oph) are shown in FIG. 1.
(§4) The obtained activity is shown by plotting the compound concentration and AP activity (%), then representing the activity of the control compound 1 (LPS18:1) as +++, an activity that is 10 folds that of control compound 1 as ++++, an activity that is 100 folds that of control compound 1 as +++++, an activity that is 1/10 as ++, and an activity that is 1/100 as +, and an activity below that as −.

mouse GPR34 = target: T2, mouse GPR34 (Mus musculus, UniProt Q9R1K6); experiment: TGFα shedding assay, agonistic activity on GPR34; assay type: cell-based; set-up: key to GPR34/LPS2 agonistic activity, TGFα shedding assay: an activity that is 100 folds that of control compound 1 as +++++; an activity that is 10 folds that of control compound 1 as ++++; the activity of the control compound 1 (LPS18:1) as +++; an activity that is 1/10 as ++; an activity that is 1/100 as +; an activity below that as −; conditions: for GPR34/LPS2 agonistic activity, TGFα shedding assay: HEK293 cells transfected with mouse GPR34 and AP labeled TGFα, activity relative to control compound 1 (LPS18:1) = +++
T2 construct: expressed in transfected cells; host or cells: HEK293
Protocol: as §1, §2, §3, §4

mouse GPR174 = target: T3, mouse GPR174 (Mus musculus, UniProt Q3U507); experiment: TGFα shedding assay, agonistic activity on GPR174; assay type: cell-based; set-up: key: an activity that is 100 folds that of control compound 1 as +++++; an activity that is 10 folds that of control compound 1 as ++++; the activity of the control compound 1 (LPS18:1) as +++; an activity that is 1/10 as ++; an activity that is 1/100 as +; an activity below that as −; conditions: HEK293 cells transfected with mouse GPR174 and AP labeled TGFα; activity relative to control compound 1 (LPS18:1) = +++
T3 construct: expressed in transfected cells; host or cells: HEK293
Protocol: as §1, §2, §3, §4

T2 sequence (Q9R1K6 whole entry): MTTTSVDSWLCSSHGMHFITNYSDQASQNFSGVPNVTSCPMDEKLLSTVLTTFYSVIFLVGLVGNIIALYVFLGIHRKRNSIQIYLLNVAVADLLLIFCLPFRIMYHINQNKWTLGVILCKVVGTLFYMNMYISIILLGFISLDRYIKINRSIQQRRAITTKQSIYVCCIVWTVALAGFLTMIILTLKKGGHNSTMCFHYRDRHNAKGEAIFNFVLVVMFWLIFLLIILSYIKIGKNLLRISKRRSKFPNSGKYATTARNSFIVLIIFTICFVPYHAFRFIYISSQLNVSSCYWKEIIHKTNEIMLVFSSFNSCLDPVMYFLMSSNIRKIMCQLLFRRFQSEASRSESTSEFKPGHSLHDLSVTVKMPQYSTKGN
T1 sequence (Q8BFU7 whole entry): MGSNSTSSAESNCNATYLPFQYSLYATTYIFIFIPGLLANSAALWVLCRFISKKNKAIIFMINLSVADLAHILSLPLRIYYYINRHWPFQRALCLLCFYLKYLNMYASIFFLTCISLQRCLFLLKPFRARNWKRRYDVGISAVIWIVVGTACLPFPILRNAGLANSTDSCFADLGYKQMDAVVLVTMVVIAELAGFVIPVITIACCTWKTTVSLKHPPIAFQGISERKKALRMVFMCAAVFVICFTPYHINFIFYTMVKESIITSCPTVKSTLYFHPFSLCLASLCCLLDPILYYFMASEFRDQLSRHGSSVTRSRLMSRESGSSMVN
T3 sequence (Q3U507 whole entry): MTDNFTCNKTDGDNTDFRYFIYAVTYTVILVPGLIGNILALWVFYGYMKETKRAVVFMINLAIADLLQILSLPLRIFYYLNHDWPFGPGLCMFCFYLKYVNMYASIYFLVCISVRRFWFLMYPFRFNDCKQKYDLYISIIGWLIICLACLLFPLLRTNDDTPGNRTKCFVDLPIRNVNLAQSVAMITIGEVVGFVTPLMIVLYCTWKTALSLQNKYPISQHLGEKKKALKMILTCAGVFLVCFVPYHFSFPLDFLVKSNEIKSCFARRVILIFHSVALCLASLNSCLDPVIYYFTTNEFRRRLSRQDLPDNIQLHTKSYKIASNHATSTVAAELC

SMILES	melting point	also measured
COC[C@H](COC(=O)CCc1ccccc1OCc1cccc(Oc2ccccc2)c1)OP(=O)(O)OC[C@H](N)C(=O)O (as salt: TFA) [Example 31, (2S)-2-amino-3-[hydroxy-((1R)-1-methoxymethyl-2-{3-[2-(3-phenoxy-benzyloxy)-phenyl]-propionyloxy}-ethoxy)-phosphoryloxy]-propionic acid]	51.5 to 53.5 °C	
C[C@H](OP(=O)(O)O[C@H]1CCCO[C@@H]1COC(=O)CCc1ccccc1OCc1cccc(Oc2ccccc2)c1)[C@H](N)C(=O)O (as salt: TFA) [Example 29, (2S,3S)-2-amino-3-[hydroxy-((2R,3S)-2-{3-[2-(3-phenoxybenzyloxy)-phenyl]-propionyloxymethyl}-tetrahydro-pyran-3-yloxy)-phosphoryloxy]-butyric acid]	42 to 54 °C	
C[C@H](OP(=O)(O)OC[C@H]1OCCC[C@@H]1OC(=O)CCc1ccccc1OCc1cccc(Oc2ccccc2)c1)[C@H](N)C(=O)O (as salt: TFA) [Example 27, (2S,3S)-2-amino-3-[hydroxyl-((2R,3S)-3-{3-[2-(3-phenoxy-benzyloxy)-phenyl]-propionyloxy}-tetrahydro-pyran-2-ylmethoxy)-phosphoryloxy]-butyric acid]	75 to 86 °C	
CCCCCCCC/C=C\CCCCCCCC(=O)OC[C@H](C)OP(=O)(O)OC[C@H](N)C(=O)O (as salt: TFA) [Example 2, (9Z)-Octadeca-9-enoic acid (2S)-2-[((2S)-2-amino-2-carboxy-ethoxy)-hydroxy-phosphoryloxy]-propyl ester]	133.5 to 134.5 °C	
C[C@H](OP(=O)(O)OC[C@H]1OCCC[C@H]1OC(=O)CCc1ccccc1OCc1cccc(Oc2ccccc2)c1)[C@H](N)C(=O)O (as salt: TFA) [Example 28, (2S,3S)-2-amino-3-[hydroxyl-((2R,3R)-3-{3-[2-(3-phenoxy-benzyloxy)-phenyl]-propionyloxy}-tetrahydro-pyran-2-ylmethoxy)-phosphoryloxy]-butyric acid]	62 to 72 °C	
C[C@H](OP(=O)(O)O[C@@H]1CCCO[C@@H]1COC(=O)CCc1ccccc1OCc1cccc(Oc2ccccc2)c1)[C@H](N)C(=O)O (as salt: TFA) [Example 30, (2S,3S)-2-amino-3-[hydroxy-((2R,3R)-2-{3-[2-(3-phenoxy-benzyloxy)-phenyl]-propionyloxymethyl}-tetrahydro-pyran-3-yloxy)-phosphoryloxy]-butyric acid]	52 to 60 °C	
N[C@@H](COP(=O)(O)O[C@@H]1C=CCO[C@@H]1COC(=O)CCc1ccccc1OCc1cccc(Oc2ccccc2)c1)C(=O)O [Example 26, (2S)-2-amino-3-[hydroxyl-((2R,3R)-2-{3-[2-(3-phenoxybenzyloxy)-phenyl]-propionyloxymethyl}-3,6-dihydro-2H-pyran-3-yloxy)-phosphoryloxy]-propionic acid]		P2Y10/LPS2 agonistic activity, TGFα shedding assay (mouse P2Y10): ++; GPR34/LPS2 agonistic activity, TGFα shedding assay (mouse GPR34): +++~++++; GPR174/LPS3 agonistic activity, TGFα shedding assay (mouse GPR174): −
COC[C@H](COC(=O)CCc1ccccc1OCc1cccc(Oc2ccccc2)c1)OP(=O)(O)OC[C@H](N)C(=O)O [Example 31, (2S)-2-amino-3-[hydroxy-((1R)-1-methoxymethyl-2-{3-[2-(3-phenoxy-benzyloxy)-phenyl]-propionyloxy}-ethoxy)-phosphoryloxy]-propionic acid]		P2Y10/LPS2 agonistic activity, TGFα shedding assay (mouse P2Y10): +~++; GPR34/LPS2 agonistic activity, TGFα shedding assay (mouse GPR34): +++++; receptor selectivity of agonist activity among GPR34, P2Y10, GPR174 (graphs of FIG. 1) (mouse GPR34; TGFα shedding assay, HEK293 cells, AP activity (%) vs concentration): agonists having selectivity against GPR34; GPR174/LPS3 agonistic activity, TGFα shedding assay (mouse GPR174): −

The next lines start with results.

melting point	SMILES	also measured
65 to 75 °C	N[C@@H](COP(=O)(O)OC[C@H]1OCCC[C@H]1OC(=O)CCc1ccccc1OCc1cccc(Oc2ccccc2)c1)C(=O)O (as salt: TFA) [Example 18]	
144 to 144.5 °C	CCCCCCCCCCCOc1ccc(C(C)(C)C)cc1CCC(=O)O[C@H]1COCC[C@@H]1OP(=O)(O)OC[C@H](N)C(=O)O (as salt: TFA) [Example 12, (2S)-2-amino-3-({(3S,4S)-3-[3-(5-tert-butyl-2-undecyloxy-phenyl)-propionyloxy]-tetrahydro-pyran-4-yloxy}-hydroxy-phosphoryloxy)-propionic acid]	
132.8 to 134.8 °C	CCCCCCCCCCCOc1ccccc1CCC(=O)O[C@H]1COCC[C@@H]1OP(=O)(O)OC[C@H](N)C(=O)O (as salt: TFA) [Example 11, (2S)-2-amino-3-(hydroxy-{(3S,4S)-3-[3-(2-undecyloxy-phenyl)-propionyloxy]-tetrahydro-pyran-4-yloxy}-phosphoryloxy)-propionic acid]	
118.5 to 122 °C	CCCCCCCC/C=C\CCCCCCCC(=O)OC[C@@H](COCc1ccccc1)OP(=O)(O)OC[C@H](N)C(=O)O (as salt: TFA) [Example 7, (9Z)-Octadeca-9-enoic acid (2R)-2-[((2S)-2-amino-2-carboxy-ethoxy)-hydroxy-phosphoryloxy]-3-benzyloxy-propyl ester]	
96.5 to 98.5 °C	CCCCCCCCCCCOc1ccccc1CCC(=O)O[C@H]1CCOC[C@@H]1OP(=O)(O)OC[C@H](N)C(=O)O (as salt: TFA) [Example 10, (2S)-2-amino-3-(hydroxy-{(3S,4S)-4-[3-(2-undecyloxy-phenyl)-propionyloxy]-tetrahydro-pyran-3-yloxy}-phosphoryloxy)-propionic acid]	
70 to 86 °C	CCCCCCCCCCCOc1ccccc1CCC(=O)OC[C@H]1OCCC[C@@H]1OP(=O)(O)OC[C@H](N)C(=O)O (as salt: TFA) [Example 21, (2S)-2-amino-3-(hydroxyl-{(2R,3S)-2-[3-(2-undecyloxy-phenyl)-propionyloxymethyl]-tetrahydro-pyran-3-yloxy}-phosphoryloxy)-propionic acid]	
192.5 to 196 °C	CCCCCCCC/C=C\CCCCCCCC(=O)OC[C@@H](COC)OP(=O)(O)OC[C@H](N)C(=O)O (as salt: TFA) [Example 4, (9Z)-Octadeca-9-enoic acid (2R)-2-[((2S)-2-amino-2-carboxy-ethoxy)-hydroxy-phosphoryloxy]-3-methoxy-propyl ester]	
70 to 80 °C	CCCCCCCC/C=C\CCCCCCCC(=O)OC[C@H]1OCCC[C@@H]1OP(=O)(O)OC[C@H](N)C(=O)O (as salt: TFA) [Example 20, (9Z)-Octadeca-9-enoic acid (2R,3S)-3-[((2S)-2-amino-2-carboxy-ethoxy)-hydroxy-phosphoryloxy]-tetrahydro-pyran-2-ylmethyl ester]	
149 to 150.5 °C	CCCCCCCC/C=C\CCCCCCCC(=O)OC[C@H](COC)OP(=O)(O)OC[C@H](N)C(=O)O (as salt: TFA) [Example 5, (9Z)-Octadeca-9-enoic acid (2S)-2-[((2S)-2-amino-2-carboxy-ethoxy)-hydroxy-phosphoryloxy]-3-methoxy-propyl ester]	
